Columns and labels:
[1] = tested on: LOX1MVI; assay: in vitro melanoma cell growth inhibition (NCI screen)
[2] = tested on: HOP-92; assay: in vitro non-small cell lung cancer cell growth inhibition (NCI screen)
[3] = tested on: SK-MEL-5; assay: in vitro melanoma cell growth inhibition (NCI screen)
[4] = tested on: HCT-15; assay: in vitro colon cancer cell growth inhibition (NCI screen)
[5] = tested on: DLD-1; assay: as above
[6] = tested on: SF-539; assay: in vitro CNS cancer cell growth inhibition (NCI screen)
[7] = tested on: NCI-H23; assay: in vitro non-small cell lung cancer cell growth inhibition (NCI screen)
[8] = tested on: HCT-116; assay: in vitro colon cancer cell growth inhibition (NCI screen)
[9] = tested on: U 251; assay: in vitro CNS cancer cell growth inhibition (NCI screen)
[10] = tested on: UACC-62; assay: in vitro melanoma cell growth inhibition (NCI screen)
[11] = tested on: M19-MEL; assay: as above
[12] = tested on: NCI-H460; assay: in vitro non-small cell lung cancer cell growth inhibition (NCI screen)
[13] = tested on: LXFL 529; assay: as above
[14] = tested on: HT 29; assay: in vitro colon cancer cell growth inhibition (NCI screen)
[15] = tested on: K-562; assay: in vitro leukemia cell growth inhibition (NCI screen)
[16] = tested on: MOLT-4; assay: as above
[17] = tested on: SR; assay: as above
[18] = tested on: COLO-205; assay: in vitro colon cancer cell growth inhibition (NCI screen)
[19] = tested on: HL-60(TB); assay: in vitro leukemia cell growth inhibition (NCI screen)
[20] = tested on: OVCAR-3; assay: in vitro ovarian cancer cell growth inhibition (NCI screen)
[21] = tested on: human tumor cell lines; format: cell-based; settings: cancer cell line panel
[22] = tested on: IGROV1; assay: in vitro ovarian cancer cell growth inhibition (NCI screen)
[23] = tested on: ACHN; assay: in vitro renal cancer cell growth inhibition (NCI screen)
[24] = tested on: M14; assay: in vitro melanoma cell growth inhibition (NCI screen)
[25] = tested on: NCI-H522; assay: in vitro non-small cell lung cancer cell growth inhibition (NCI screen)
[26] = tested on: OVCAR-4; assay: in vitro ovarian cancer cell growth inhibition (NCI screen); settings: OVACR-4
[27] = tested on: SK-MEL-2; assay: in vitro melanoma cell growth inhibition (NCI screen)
[28] = tested on: MALME-3M; assay: as above
[29] = tested on: UACC-257; assay: as above
[30] = tested on: SW 620; assay: in vitro colon cancer cell growth inhibition (NCI screen)
[31] = tested on: RXF-393; assay: in vitro renal cancer cell growth inhibition (NCI screen)

SMILES	cytotoxicity log GI50 [1] [M]	cytotoxicity log GI50 [2] [M]	cytotoxicity log GI50 [3] [M]	cytotoxicity log GI50 [4] [M]	cytotoxicity log GI50 [7] [M]	cytotoxicity log GI50 [10] [M]	cytotoxicity log GI50 [11] [M]	cytotoxicity log GI50 [12] [M]	cytotoxicity log GI50 [15] [M]	cytotoxicity log GI50 [19] [M]	cytotoxicity log GI50 [20] [M]	cytotoxicity log GI50 [23] [M]	cytotoxicity log GI50 [28] [M]	also measured
CCCC(C)n1c(C)nc2c1C(=O)c1ccccc1C2=O (centres unmarked) [Compound 9]	-5.06	-4.78	-4.88	-5.22	-4.81	-5.17	-4.90	-5.34	-5.07	–	–	–	–	cytotoxicity log GI50 [5]: -5.07 M; cytotoxicity log GI50 [6]: -4.89 M; cytotoxicity log GI50 [8]: -5.26 M; cytotoxicity log GI50 [9]: -4.91 M; cytotoxicity log GI50 [13]: -4.90 M; cytotoxicity log GI50 [14]: -4.76 M
CCC(CC)NC1=C(NC(C)=O)C(=O)c2ccccc2C1=O [Compound 34]	–	-6.47	–	–	–	–	–	–	–	–	–	–	–	–
CCC(C)Cn1c(C)nc2c1C(=O)c1ccccc1C2=O (centres unmarked) [Compound 13]	-4.71	-4.69	-4.82	-4.76	-4.68	-5.00	-4.74	-4.83	-5.27	-5.30	–	–	–	cytotoxicity log GI50 [16]: -5.54 M; cytotoxicity log GI50 [6]: -4.75 M; cytotoxicity log GI50 [17]: -5.55 M; cytotoxicity log GI50 [18]: -4.70 M; cytotoxicity log GI50 [13]: -4.77 M
Cc1nc2c(n1CCO)C(=O)c1ccccc1C2=O [Compound 16]	-4.63	–	-4.95	–	-4.82	-4.78	-5.59	–	-4.59	-4.70	-4.61	-4.60	-4.93	cytotoxicity against tumor cells (in words) [21]: comparable to those of compounds 6-14; cytotoxicity log GI50 [22]: -4.69 M; cytotoxicity log GI50 [17]: -4.58 M; cytotoxicity log GI50 [24]: -4.67 M; cytotoxicity log GI50 [25]: -4.84 M; cytotoxicity log GI50 [26]: -4.58 M; cytotoxicity log GI50 [8]: -4.72 M; cytotoxicity log GI50 [27]: -4.74 M; cytotoxicity log GI50 [18]: -4.72 M; cytotoxicity log GI50 [29]: -4.78 M
CCC(C)CNC1=C(NC(C)=O)C(=O)c2ccccc2C1=O (centres unmarked) [Compound 37]	–	–	-4.50	–	-4.17	–	-4.68	–	–	–	-4.25	–	-4.45	–
O=C1c2ccccc2C(=O)c2[nH]c(Cc3ccc(F)cc3)nc21 [Compound 4c]	–	–	–	-5.19	–	–	–	–	–	–	-5.27	-4.85	-4.84	cytotoxicity log GI50 [22]: -4.90 M; cytotoxicity log GI50 [5]: -5.40 M; cytotoxicity log GI50 [30]: -4.84 M; cytotoxicity log GI50 [24]: -4.82 M; cytotoxicity log GI50 [31]: -5.16 M; cytotoxicity log GI50 [26]: -4.83 M; cytotoxicity log GI50 [27]: -4.86 M
CCCC(C)NC1=C(NC(C)=O)C(=O)c2ccccc2C1=O (centres unmarked) [Compound 33]	–	-4.32	-4.13	–	–	–	-4.20	–	–	–	–	–	-4.44	cytotoxicity log GI50 [25]: -4.19 M
Cc1nc2c(n1CC(C)(C)C)C(=O)c1ccccc1C2=O [Compound 14]	-4.25	-4.78	-4.37	–	–	–	–	-4.23	-4.25	-4.44	-4.18	–	–	–
CC(=O)NC1=C(NCCC(C)C)C(=O)c2ccccc2C1=O [Compound 35]	–	–	–	–	–	–	–	–	–	–	–	-7.52	–	–

From patent publication US5789431A, “Naphthoquinone antitumor compound and method” (The University of North Carolina at Chapel Hill, priority 1996, dated 1998)
